Reference: patent US12589097B2, “Apilimod compositions and methods of use” (ORPHAI THERAPEUTICS INC., priority 2023, dated 2026)

What was measured:
[1] = tested on: TDP-43 (rNLS8) mouse model of ALS; test: Clinical assessment of motor dysfunction in TDP-43 (rNLS8) mouse model of ALS; assay type: in vivo; conditions: body weight and clinical scores taken together
Experimental: (§1) For the evaluation, all mice received either apilimod dimesylate (60 mg/kg)) or vehicle two times daily for 24 days, starting at […] of age, 3 days prior to disease initiation. Both groups had routine clinical assessments 3 times per week. Twenty-four (24) total mice were assigned to one of two groups, as outlined in Table 1. […]
(§2) Animals were weighed at the beginning of the experiment, and then, for dosing, daily for the duration of the study. Animals were also monitored daily, and clinical assessments were performed three times per week (Mondays, Wednesday, and Fridays) from disease initiation to the end of the study. Each clinical assessment day, animals were assessed for signs of motor dysfunction, including signs of tremor, hindlimb clasping, hindlimb paralysis, grill agility, and overall well-being. Each of these signs were scored on a scale of 0-3: normal/no dysfunction (0), mild (1), moderate (2), or severe (3), as summarized in Table 2. […]
(§3) All summary statistics are presented as mean and standard deviation. […] The data were first assessed for normality with a normal probability plot, followed by assessment of homogeneity of variance, if appropriate. […]
Progression of clinical scores (also herein “severity score”) throughout the study, following removal of Full DOX was evaluated. […]

[2] = Body weight (percent baseline) in TDP-43 (rNLS8) mouse model of ALS; assay type: in vivo; conditions: Group B (60 mg/kg p.o. BID) vs vehicle Group A
Experimental: as §1, §2, §3

[3] = tested on: Glycoprotein Nonmetastatic Melanoma Protein B (GPNMB); test: SOMAscan aptamer-based proteomics of plasma from patients dosed with apilimod (NCT02594384); assay type: in vivo, human; conditions: pre-dose vs day 15 after 14 days of dosing, FDR<0.05
Text: A SOMAscan™ platform was used to identify analytes that were changed in the plasma of patients upon apilimod dosing. SOMAscan™ is an aptamer-based proteomics assay from SomaLogic capable of measuring 1,305 human protein analytes in serum or plasma with high sensitivity and specificity. Plasma from patients enrolled in the clinical trial designated NCT02594384 was collected pre-dose (before the first administration of apilimod) and after 14 days of dosing with apilimod, on day 15. Using differential protein analysis with a paired experimental design for linear models of microarray data using the “Limma R” software package described by Ritchie et al. in Nucleic Acids Research, 43(7), pp. e47 (2015).

[4] = Observation of adverse effects of treatment in rNLS8 mice; assay type: in vivo, mouse; conditions: 60 mg/kg p.o. BID for 24 days
Experimental: For the evaluation, all mice received either apilimod dimesylate (60 mg/kg)) or vehicle two times daily for 24 days, starting at […] of age, 3 days prior to disease initiation. Both groups had routine clinical assessments 3 times per week. Twenty-four (24) total mice were assigned to one of two groups, as outlined in Table 1.
Animals were weighed at the beginning of the experiment, and then, for dosing, daily for the duration of the study. Animals were also monitored daily, and clinical assessments were performed three times per week (Mondays, Wednesday, and Fridays) from disease initiation to the end of the study. Each clinical assessment day, animals were assessed for signs of motor dysfunction, including signs of tremor, hindlimb clasping, hindlimb paralysis, grill agility, and overall well-being. Each of these signs were scored on a scale of 0-3: normal/no dysfunction (0), mild (1), moderate (2), or severe (3), as summarized in Table 2.
Apilimod dimesylate was received at ambient temperature in a 50 mL tube and protected from light. The treatments were administered p.o. twice per day (BID) for a period of 24 days Each daily dose was performed within the same ˜2-hour time frame, with approximately 6 hours between doses.

With Cc1cccc(/C=N/Nc2cc(N3CCOCC3)nc(OCCc3ccccn3)n2)c1 [apilimod] the “functional deficits in TDP-43 ALS animal model” value [1] was “ameliorates functional deficits”, the “percent baseline body weight vs vehicle at every clinical assessment visit” value [2] was “tendency for higher percent baseline body weight” and the “average fold change of plasma (shed) GPNMB” value [3] was 4 fold. The “adverse effects of treatment” value [4] was “No adverse effects”.
